Test results: patent US6033823A, “Mutated penicillin G acylase genes” (priority 1994, dated 2000)
Numbering of substitutions follows the chain as printed.

Tests used:
[1] = target: T1, Alcaligenes faecalis Penicillin G acylase mutant B:L56V (Alcaligenes faecalis, UniProt O34142, L321V); assay: NIPAB kinetics and phenylacetic acid product inhibition, mutant B:L56V; assay type: biochemical; conditions: from progress curves of NIPAB deacylation, 25° C., 0.1 M NaH2PO4.H2O buffer pH 7.5, read-out: Ki Phenylacetic acid (inhibition constant, dissociation constant)
T1 construct: alpha 202 aa, beta 551 aa; recombinant, E. coli host
T1 sequence (O34142 27-228): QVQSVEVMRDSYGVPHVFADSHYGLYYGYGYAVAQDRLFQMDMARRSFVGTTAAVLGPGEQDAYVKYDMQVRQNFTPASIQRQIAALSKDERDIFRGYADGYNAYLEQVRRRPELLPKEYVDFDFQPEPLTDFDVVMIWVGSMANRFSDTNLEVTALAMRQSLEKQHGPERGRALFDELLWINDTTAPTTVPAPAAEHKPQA
T1 sequence (O34142 266-816 L321V): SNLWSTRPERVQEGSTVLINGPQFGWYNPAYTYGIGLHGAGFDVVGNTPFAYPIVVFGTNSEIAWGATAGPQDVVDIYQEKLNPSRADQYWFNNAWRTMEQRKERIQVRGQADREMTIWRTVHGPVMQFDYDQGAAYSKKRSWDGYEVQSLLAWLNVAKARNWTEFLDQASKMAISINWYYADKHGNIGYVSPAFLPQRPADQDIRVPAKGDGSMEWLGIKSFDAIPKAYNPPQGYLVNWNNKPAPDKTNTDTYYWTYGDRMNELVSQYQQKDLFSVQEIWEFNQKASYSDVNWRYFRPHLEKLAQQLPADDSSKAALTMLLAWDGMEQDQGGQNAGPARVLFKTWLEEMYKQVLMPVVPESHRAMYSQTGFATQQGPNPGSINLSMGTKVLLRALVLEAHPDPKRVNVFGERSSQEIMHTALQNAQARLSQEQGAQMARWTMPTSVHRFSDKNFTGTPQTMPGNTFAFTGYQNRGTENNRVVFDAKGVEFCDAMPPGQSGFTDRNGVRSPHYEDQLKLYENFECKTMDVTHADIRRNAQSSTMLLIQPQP
Procedure: (§1) In a continuous assay Penicillin G acylase was assayed spectro-fotometrically with the chromogenic substrate NIPAB [6-nitro-3-phenylacetamido-benzoic acid]. The liberation of 3-amino-6-nitrobenzoic acid was monitored by measuring the extinction at 405 nm in a Kontron 610 kinetic spectrofotometer. Measuring maximal rate, the assays were performed at 25° C. using 20 mM NaH2 PO4.H2 O at pH 7.5 with 20 mM NIPAB and 100 μl enzym solution (at a proper dilution). Initial rate measurements were performed with varying concentration of NIPAB.
(§2) Initial rate measurements were performed with excess substrate over the enzyme. Catalytic parameters were derived from least-squares fitting of the measured initial rates plotted for various substrate concentrations according to the Michaelis-Menten equation.
(§3) The complete conversion of NIPAB was followed as a funtion of time at 20, 50 and 100 μM NIPAB by following the increase in absorbtion at 405 nm. Products of this conversion are phenylacetic acid and 3-amino-6-nitrobenzoic acid. The conversion was performed at 25° C. in 0.1 M NaH2 PO4.H2 O buffer pH 7.5. The progress curves of the deacylation of NIPAB could be fitted very well when product inhibition by phenylacetic acid was taken into account. […]

[2] = target: T2, Alcaligenes faecalis Penicillin G acylase mutant B:I177V (Alcaligenes faecalis, UniProt O34142, I442V); assay: NIPAB kinetics and phenylacetic acid product inhibition, mutant B:I177V; assay type: biochemical; conditions: from progress curves of NIPAB deacylation, 25° C., 0.1 M NaH2PO4.H2O buffer pH 7.5, read-out: Ki Phenylacetic acid (inhibition constant, dissociation constant)
T2 construct: alpha 202 aa, beta 551 aa; recombinant, E. coli host
T2 sequence (O34142 27-228): T1 sequence (O34142 27-228)
T2 sequence (O34142 266-816 I442V): T1 sequence (O34142 266-816 L321V) with V56L, I177V
Procedure: as §1, §2, §3

O=C(O)Cc1ccccc1 [phenylacetic acid]
Ki [1]: 31 µM | Ki [2]: 35 µM
